Measurements taken from ChEMBL document CHEMBL2417479, “Effects of the methoxy group in the side chain of debromoaplysiatoxin on its tumor-promoting and anti-proliferative activities” (Bioorg Med Chem Lett, 2013).

What was measured:
Raji [1] = assay: Tumor-promoting activity against human Raji cells expressing EBV-EA at 10^-8 M after 48 hrs by indirect immunofluorescence assay relative to control; type: ADME, cell-based; settings: 0.01 µM
OVCAR-3 = assay: Growth inhibition of human OVCAR3 cells after 48 hrs by SRB assay; type: functional; settings: OVCAR-3, 48 h
NCI-H522 = assay: Growth inhibition of human NCI-H522 cells after 48 hrs by SRB assay; type: functional; settings: NCI-H522, 48 h
[2] = Growth inhibition of human BSY1 cells after 48 hrs by SRB assay; type: functional; settings: BSY-1, 48 h
SF-268 = assay: Growth inhibition of human SF268 cells after 48 hrs by SRB assay; type: functional; settings: SF-268, 48 h
OVCAR-8 = assay: Growth inhibition of human OVCAR8 cells after 48 hrs by SRB assay; type: functional; settings: OVCAR-8, 48 h
HT-29 = assay: Growth inhibition of human HT-29 cells after 48 hrs by SRB assay; type: functional; settings: HT-29, 48 h
[3] = Cytotoxicity against human Raji cells assessed as cell viability at 10^-7 M relative to control; type: cell-based; settings: read-out: Activity
PC-3 = assay: Growth inhibition of human PC3 cells after 48 hrs by SRB assay; type: functional; settings: PC-3, 48 h
DMS-114 = assay: Growth inhibition of human DMS114 cells after 48 hrs by SRB assay; type: functional; settings: DMS-114, 48 h
Raji [4] = assay: Tumor-promoting activity against human Raji cells expressing EBV-EA at 10^-7 M after 48 hrs by indirect immunofluorescence assay relative to control; type: ADME, cell-based; settings: 0.1 µM
MKN-74 = assay: Growth inhibition of human MKN74 cells after 48 hrs by SRB assay; type: functional; settings: MKN-74, 48 h
SNB-75 = assay: Growth inhibition of human SNB75 cells after 48 hrs by SRB assay; type: functional; settings: SNB-75, 48 h
KM12 = assay: Growth inhibition of human KM12 cells after 48 hrs by SRB assay; type: functional; settings: KM12, 48 h
[5] = Growth inhibition of human HBC4 cells after 48 hrs by SRB assay; type: functional; settings: HBC4, 48 h
Raji [6] = assay: Tumor-promoting activity against human Raji cells expressing EBV-EA at 10^-6 M after 48 hrs by indirect immunofluorescence assay relative to control; type: ADME, cell-based; settings: 1 µM
SNB-78 = assay: Growth inhibition of human SNB-78 cells after 48 hrs by SRB assay; type: functional; settings: SNB-78, 48 h
DMS-273 = assay: Growth inhibition of human DMS273 cells after 48 hrs by SRB assay; type: functional; settings: DMS-273, 48 h
U-251 = assay: Growth inhibition of human U251 cells after 48 hrs by SRB assay; type: functional; settings: U-251, 48 h
MKN-45 = assay: Growth inhibition of human MKN45 cells after 48 hrs by SRB assay; type: functional; settings: MKN-45, 48 h
St-4 = assay: Growth inhibition of human St-4 cells after 48 hrs by SRB assay; type: functional; settings: St-4, 48 h
NCI-H23 = assay: Growth inhibition of human NCI-H23 cells after 48 hrs by SRB assay; type: functional; settings: NCI-H23, 48 h
[7] = Growth inhibition of human RXF631L cells after 48 hrs by SRB assay; type: functional; settings: RXF 631, 48 h
MCF7 = assay: Growth inhibition of human MCF7 cells after 48 hrs by SRB assay; type: functional; settings: MCF7, 48 h
SF-295 = assay: Growth inhibition of human SF295 cells after 48 hrs by SRB assay; type: functional; settings: SF-295, 48 h
MDA-MB-231 = assay: Growth inhibition of human MDA-MB-231 cells after 48 hrs by SRB assay; type: functional; settings: MDA-MB-231, 48 h
HCT-116 = assay: Growth inhibition of human HCT116 cells after 48 hrs by SRB assay; type: functional; settings: HCT-116, 48 h
SF-539 = assay: Growth inhibition of human SF539 cells after 48 hrs by SRB assay; type: functional; settings: SF-539, 48 h
[8] = Growth inhibition of human HBC5 cells after 48 hrs by SRB assay; type: functional; settings: HBC5, 48 h
LOX IMVI = assay: Growth inhibition of human LOXIMVI cells after 48 hrs by SRB assay; type: functional
SK-OV-3 = assay: Growth inhibition of human SKOV3 cells after 48 hrs by SRB assay; type: functional; settings: SK-OV-3, 48 h
DU-145 = assay: Growth inhibition of human DU145 cells after 48 hrs by SRB assay; type: functional; settings: DU-145, 48 h
Mus musculus [9] = assay: In vivo tumor-promoting activity in DMBA-treated ICR mouse assessed as tumor bearing mouse at 3.4 nmol administered twice per week measured after 20 weeks by two-stage carcinogenesis assay relative to control; type: ADME, organism-based; settings: 3360 h
[10] = Cytotoxicity against human Raji cells assessed as cell viability at 10^-8 M relative to control; type: cell-based; settings: read-out: Activity
[11] = Cytotoxicity against human Raji cells assessed as cell viability at 10^-6 M relative to control; type: cell-based; settings: read-out: Activity
[12] = Growth inhibition of human MKN1 cells after 48 hrs by SRB assay; type: functional; settings: MKN-1, 48 h
MKN-28 = assay: Growth inhibition of human MKN28 cells after 48 hrs by SRB assay; type: functional; settings: MKN-28, 48 h
[13] = Growth inhibition of human HCC2998 cells after 48 hrs by SRB assay; type: functional; settings: HCC 2998, 48 h
MKN-7 = assay: Growth inhibition of human MKN7 cells after 48 hrs by SRB assay; type: functional; settings: MKN-7, 48 h
OVCAR-5 = assay: Growth inhibition of human OVCAR5 cells after 48 hrs by SRB assay; type: functional; settings: OVCAR-5, 48 h
OVCAR-4 = assay: Growth inhibition of human OVCAR4 cells after 48 hrs by SRB assay; type: functional; settings: OVCAR-4, 48 h
NCI-H226 = assay: Growth inhibition of human NCI-H226 cells after 48 hrs by SRB assay; type: functional; settings: NCI-H226, 48 h
A549 = assay: Growth inhibition of human A549 cells after 48 hrs by SRB assay; type: functional; settings: A549, 48 h
HCT-15 = assay: Growth inhibition of human HCT15 cells after 48 hrs by SRB assay; type: functional; settings: HCT-15, 48 h
ACHN = assay: Growth inhibition of human ACHN cells after 48 hrs by SRB assay; type: functional
NCI-H460 = assay: Growth inhibition of human NCI-H460 cells after 48 hrs by SRB assay; type: functional; settings: NCI-H460, 48 h
Mus musculus [14] = assay: In vivo tumor-promoting activity in DMBA-treated ICR mouse assessed as increase in number of papillomas at 1.7 nmol administered twice per week measured at 13 to 20 weeks by two-stage carcinogenesis assay; type: ADME, organism-based
Mus musculus [15] = assay: In vivo tumor-promoting activity in DMBA-treated ICR mouse assessed as increase in number of papillomas at 3.4 nmol administered twice per week measured at 11 to 20 weeks by two-stage carcinogenesis assay; type: ADME, organism-based
Mus musculus [16] = assay: In vivo tumor-promoting activity in DMBA-treated ICR mouse assessed as tumor bearing mouse at 1.7 nmol administered twice per week measured after 20 weeks by two-stage carcinogenesis assay relative to control; type: ADME, organism-based; settings: 3360 h
[17] = biological target: Protein kinase C eta type (Homo sapiens, UniProt P24723); assay: Displacement of [3H]PDBu from PKCeta C1B domain (unknown origin)
Sequence of Protein kinase C eta type (P24723 whole entry, the tested form may be a part): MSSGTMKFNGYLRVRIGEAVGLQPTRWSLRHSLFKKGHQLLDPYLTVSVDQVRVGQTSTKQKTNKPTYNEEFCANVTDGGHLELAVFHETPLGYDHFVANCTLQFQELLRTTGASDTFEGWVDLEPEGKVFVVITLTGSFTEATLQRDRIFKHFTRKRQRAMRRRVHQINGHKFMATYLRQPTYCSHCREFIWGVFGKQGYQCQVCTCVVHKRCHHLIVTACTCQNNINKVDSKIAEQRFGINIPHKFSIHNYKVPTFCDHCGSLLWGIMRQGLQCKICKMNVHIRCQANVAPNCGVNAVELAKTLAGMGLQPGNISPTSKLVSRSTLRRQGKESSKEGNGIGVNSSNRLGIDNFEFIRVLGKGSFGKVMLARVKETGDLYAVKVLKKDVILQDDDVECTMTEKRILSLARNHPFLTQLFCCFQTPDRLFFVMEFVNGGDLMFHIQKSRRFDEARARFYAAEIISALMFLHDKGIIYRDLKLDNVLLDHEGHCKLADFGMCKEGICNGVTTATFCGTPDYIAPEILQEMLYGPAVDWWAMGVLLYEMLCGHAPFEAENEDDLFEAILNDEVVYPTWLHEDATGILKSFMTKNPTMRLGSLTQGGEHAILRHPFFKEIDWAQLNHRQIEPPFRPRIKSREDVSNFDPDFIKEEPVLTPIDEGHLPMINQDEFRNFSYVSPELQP

[18] = biological target: Protein kinase C theta type (Homo sapiens, UniProt Q04759); assay: Displacement of [3H]PDBu from PKCtheta C1B domain (unknown origin)
Sequence of Protein kinase C theta type (Q04759 whole entry, the tested form may be a part): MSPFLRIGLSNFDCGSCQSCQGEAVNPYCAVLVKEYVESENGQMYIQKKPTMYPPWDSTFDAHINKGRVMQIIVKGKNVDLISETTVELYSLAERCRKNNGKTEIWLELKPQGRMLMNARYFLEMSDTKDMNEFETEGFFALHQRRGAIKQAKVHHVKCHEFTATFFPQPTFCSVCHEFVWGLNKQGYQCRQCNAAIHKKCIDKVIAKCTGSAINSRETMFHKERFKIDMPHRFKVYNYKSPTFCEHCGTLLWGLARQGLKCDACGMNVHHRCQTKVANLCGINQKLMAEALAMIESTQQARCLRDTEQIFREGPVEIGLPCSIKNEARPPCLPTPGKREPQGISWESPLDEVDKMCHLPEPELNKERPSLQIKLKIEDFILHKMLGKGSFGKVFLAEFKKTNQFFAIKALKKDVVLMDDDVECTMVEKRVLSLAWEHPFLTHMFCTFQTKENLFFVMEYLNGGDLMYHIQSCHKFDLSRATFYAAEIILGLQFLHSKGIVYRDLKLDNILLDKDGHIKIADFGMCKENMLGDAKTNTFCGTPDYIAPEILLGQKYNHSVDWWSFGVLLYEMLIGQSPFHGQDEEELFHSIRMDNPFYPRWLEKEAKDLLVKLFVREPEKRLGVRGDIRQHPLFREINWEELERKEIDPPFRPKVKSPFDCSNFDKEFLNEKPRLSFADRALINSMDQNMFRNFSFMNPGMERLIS

[19] = biological target: Protein kinase C delta type (Homo sapiens, UniProt Q05655); assay: Displacement of [3H]PDBu from PKCdelta C1B domain (unknown origin)
Sequence of Protein kinase C delta type (Q05655 whole entry, the tested form may be a part): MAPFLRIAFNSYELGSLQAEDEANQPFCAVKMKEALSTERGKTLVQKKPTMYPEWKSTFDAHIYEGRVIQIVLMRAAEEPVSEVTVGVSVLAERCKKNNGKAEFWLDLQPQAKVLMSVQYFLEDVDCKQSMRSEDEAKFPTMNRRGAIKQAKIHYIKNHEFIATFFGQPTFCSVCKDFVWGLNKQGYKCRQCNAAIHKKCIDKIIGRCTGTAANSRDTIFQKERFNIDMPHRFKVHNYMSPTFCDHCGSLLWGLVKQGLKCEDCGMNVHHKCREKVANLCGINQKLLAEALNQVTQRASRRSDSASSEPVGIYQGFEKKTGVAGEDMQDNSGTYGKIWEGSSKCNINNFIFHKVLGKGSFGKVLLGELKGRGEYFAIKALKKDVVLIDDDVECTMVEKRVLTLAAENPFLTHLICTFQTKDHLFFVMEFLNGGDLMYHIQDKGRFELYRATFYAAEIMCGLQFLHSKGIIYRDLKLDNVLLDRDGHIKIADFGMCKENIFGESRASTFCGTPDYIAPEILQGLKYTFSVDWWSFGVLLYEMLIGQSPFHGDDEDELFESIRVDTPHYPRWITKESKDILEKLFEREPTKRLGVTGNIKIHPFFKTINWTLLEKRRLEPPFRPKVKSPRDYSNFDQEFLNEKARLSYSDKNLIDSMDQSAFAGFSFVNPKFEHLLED

[20] = biological target: Protein kinase C alpha type (Homo sapiens, UniProt P17252); assay: Displacement of [3H]PDBu from PKCalpha C1A domain (unknown origin)
[21] = biological target: Protein kinase C beta type (Homo sapiens, UniProt P05771); assay: Displacement of [3H]PDBu from PKCbeta C1A domain (unknown origin)
Sequence of Protein kinase C beta type (P05771 whole entry, the tested form may be a part): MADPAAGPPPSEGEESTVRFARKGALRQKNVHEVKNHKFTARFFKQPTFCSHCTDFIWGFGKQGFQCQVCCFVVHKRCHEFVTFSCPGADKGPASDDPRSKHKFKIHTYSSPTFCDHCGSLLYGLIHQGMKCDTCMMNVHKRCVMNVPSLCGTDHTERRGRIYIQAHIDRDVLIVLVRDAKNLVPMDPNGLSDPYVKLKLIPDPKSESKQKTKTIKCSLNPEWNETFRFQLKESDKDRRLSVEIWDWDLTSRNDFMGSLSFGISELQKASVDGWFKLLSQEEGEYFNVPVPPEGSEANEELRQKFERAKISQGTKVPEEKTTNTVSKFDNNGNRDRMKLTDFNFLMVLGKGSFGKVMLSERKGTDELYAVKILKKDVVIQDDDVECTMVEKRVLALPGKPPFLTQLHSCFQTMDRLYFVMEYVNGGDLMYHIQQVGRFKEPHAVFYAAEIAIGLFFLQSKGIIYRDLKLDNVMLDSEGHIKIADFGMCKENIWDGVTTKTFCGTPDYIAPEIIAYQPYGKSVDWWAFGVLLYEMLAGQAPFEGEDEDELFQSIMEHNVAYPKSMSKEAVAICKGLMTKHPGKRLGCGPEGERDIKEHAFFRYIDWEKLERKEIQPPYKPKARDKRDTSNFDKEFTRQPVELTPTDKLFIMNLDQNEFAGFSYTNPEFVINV

[22] = biological target: Protein kinase C epsilon type (Homo sapiens, UniProt Q02156); assay: Displacement of [3H]PDBu from PKCepsilon C1B domain (unknown origin)
Sequence of Protein kinase C epsilon type (Q02156 whole entry, the tested form may be a part): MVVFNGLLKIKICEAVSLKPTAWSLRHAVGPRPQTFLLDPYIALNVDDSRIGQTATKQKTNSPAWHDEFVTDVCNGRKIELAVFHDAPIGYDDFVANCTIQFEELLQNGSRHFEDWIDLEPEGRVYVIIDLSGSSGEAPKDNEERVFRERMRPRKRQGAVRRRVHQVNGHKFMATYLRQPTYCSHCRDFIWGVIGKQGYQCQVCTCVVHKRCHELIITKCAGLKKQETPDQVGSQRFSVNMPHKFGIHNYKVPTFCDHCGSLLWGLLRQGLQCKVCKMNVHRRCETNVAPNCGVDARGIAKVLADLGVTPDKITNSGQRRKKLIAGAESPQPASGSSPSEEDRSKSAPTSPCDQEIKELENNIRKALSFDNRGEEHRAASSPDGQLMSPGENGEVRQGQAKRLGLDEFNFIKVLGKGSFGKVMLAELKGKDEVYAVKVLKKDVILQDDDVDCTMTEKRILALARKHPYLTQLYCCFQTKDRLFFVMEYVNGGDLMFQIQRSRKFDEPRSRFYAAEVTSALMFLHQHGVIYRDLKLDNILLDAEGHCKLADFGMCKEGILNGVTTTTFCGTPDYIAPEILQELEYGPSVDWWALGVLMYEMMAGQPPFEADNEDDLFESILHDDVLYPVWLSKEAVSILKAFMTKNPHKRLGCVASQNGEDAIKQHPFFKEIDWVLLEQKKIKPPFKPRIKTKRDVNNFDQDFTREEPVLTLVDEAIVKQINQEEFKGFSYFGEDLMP

[23] = biological target: Protein kinase C gamma type (Homo sapiens, UniProt P05129); assay: Displacement of [3H]PDBu from PKCgamma C1A domain (unknown origin)

## CC1=C2CC(=O)O[C@@H]([C@@H](C)O)CC(=O)O[C@H]3C[C@@](O2)(O[C@H]([C@@H](C)CCCc2cccc(O)c2)[C@H]3C)C(C)(C)C1
Raji [1]
  Activity: 11%
OVCAR-3
  GI50: 8.51 µM
NCI-H522
  GI50: 5.5 µM
[2]
  GI50: 4.07 µM
SF-268
  GI50: 10.2 µM
OVCAR-8
  GI50: 12.6 µM
HT-29
  GI50: 4.47 µM
[3]
  viability at 0.1 µM: 60%
PC-3
  GI50: 3.72 µM
DMS-114
  GI50: 4.47 µM
Raji [4]
  Activity: 14.1%
MKN-74
  GI50: 6.17 µM
SNB-75
  GI50: 9.77 µM
KM12
  GI50: 4.17 µM
[5]
  GI50: 0.55 µM
Raji [6]
  Activity: 16.2%
SNB-78
  GI50: 15.5 µM
DMS-273
  GI50: 4.37 µM
U-251
  GI50: 4.57 µM
MKN-45
  GI50: 1.82 µM
St-4
  GI50: 0.741 µM
NCI-H23
  GI50: 7.94 µM
[7]
  GI50: 11 µM
MCF7
  GI50: 4.37 µM
SF-295
  GI50: 3.24 µM
MDA-MB-231
  GI50: 1.07 µM
HCT-116
  GI50: 5.62 µM
SF-539
  GI50: 11.2 µM
[8]
  GI50: 11.7 µM
LOX IMVI
  GI50: 0.832 µM
SK-OV-3
  GI50: 15.5 µM
DU-145
  GI50: 7.94 µM
Mus musculus [9]
  Activity: Not Active
[10]
  viability at 0.01 µM: 60%
[11]
  viability at 1 µM: 60%
[12]
  GI50: 8.13 µM
MKN-28
  GI50: 4.68 µM
[13]
  GI50: 1.86 µM
MKN-7
  GI50: 4.07 µM
OVCAR-5
  GI50: 4.17 µM
OVCAR-4
  GI50: 6.61 µM
NCI-H226
  GI50: 10.7 µM
A549
  GI50: 2.09 µM
HCT-15
  GI50: 6.76 µM
ACHN
  GI50: 5.5 µM
NCI-H460
  GI50: 0.871 µM

## CO[C@@H](CC[C@H](C)[C@H]1O[C@@]23C[C@H](OC(=O)C[C@H]([C@@H](C)O)OC(=O)C[C@](O)(O2)[C@H](C)CC3(C)C)[C@@H]1C)c1cccc(O)c1 [DEBROMOAPLYSIATOXIN]
Raji [1]
  Activity: 21.1%
[3]
  viability at 0.1 µM: 50%
Raji [4]
  Activity: 22.9%
Raji [6]
  Activity: 24.4%
Mus musculus [14]
  Activity: Toxic
Mus musculus [9]
  Activity: 90%
[10]
  viability at 0.01 µM: 60%
[11]
  viability at 1 µM: 50%
Mus musculus [15]
  Activity: Toxic
Mus musculus [16]
  Activity: 80%

## C[C@@H]1[C@@H]([C@@H](C)CCCc2cccc(O)c2)O[C@@]23C[C@@H]1OC(=O)C[C@H]([C@@H](C)O)OC(=O)C[C@](O)(O2)[C@H](C)CC3(C)C [DEMETHOXYDEBROMOAPLYSIATOXIN]
[17]
  Ki: 0.00018 µM
[18]
  Ki: 0.0002 µM
Raji [1]
  Activity: 14.3%
OVCAR-3
  GI50: 8.13 µM
NCI-H522
  GI50: 4.79 µM
[2]
  GI50: 6.17 µM
SF-268
  GI50: 13.2 µM
OVCAR-8
  GI50: 14.8 µM
HT-29
  GI50: 12.3 µM
[3]
  viability at 0.1 µM: 50%
PC-3
  GI50: 4.57 µM
DMS-114
  GI50: 5.5 µM
[19]
  Ki: 0.00032 µM
Raji [4]
  Activity: 17.9%
MKN-74
  GI50: 6.92 µM
SNB-75
  GI50: 10.2 µM
KM12
  GI50: 3.47 µM
[5]
  GI50: < 0.01 µM
Raji [6]
  Activity: 18.6%
SNB-78
  GI50: 6.46 µM
DMS-273
  GI50: 3.47 µM
U-251
  GI50: 7.24 µM
MKN-45
  GI50: 6.76 µM
Mus musculus [14]
  Activity: Toxic
St-4
  GI50: 0.0129 µM
NCI-H23
  GI50: 6.17 µM
[7]
  GI50: 15.1 µM
[20]
  Ki: 0.001 µM
MCF7
  GI50: 5.62 µM
[21]
  Ki: 0.0015 µM
SF-295
  GI50: 2.95 µM
MDA-MB-231
  GI50: 0.049 µM
HCT-116
  GI50: 8.71 µM
SF-539
  GI50: 11.5 µM
[8]
  GI50: 11.2 µM
LOX IMVI
  GI50: 1.62 µM
[22]
  Ki: 0.0013 µM
SK-OV-3
  GI50: 7.24 µM
DU-145
  GI50: 10.7 µM
Mus musculus [9]
  Activity: 90%
[10]
  viability at 0.01 µM: 60%
[11]
  viability at 1 µM: 50%
[12]
  GI50: 5.5 µM
Mus musculus [15]
  Activity: Toxic
MKN-28
  GI50: 6.76 µM
[23]
  Ki: 0.00069 µM
[13]
  GI50: 0.0692 µM
MKN-7
  GI50: 2.75 µM
OVCAR-5
  GI50: 4.9 µM
OVCAR-4
  GI50: 7.24 µM
NCI-H226
  GI50: 0.0525 µM
Mus musculus [16]
  Activity: 70%
A549
  GI50: 0.145 µM
HCT-15
  GI50: 9.77 µM
ACHN
  GI50: 2.51 µM
NCI-H460
  GI50: 0.01 µM
